Earlier results, collected in US20110153027A1, “Drug Delivery System” (Vysera Biomedical Limited, priority 2009, published 2011).

Experiments:
[1] = minimum effective concentration
[2] = compared with cyclosporine

| SMILES | MEC [1] [µg/mL] | water solubility [2] |
| --- | --- | --- |
| Cn1cnc([N+](=O)[O-])c1Sc1ncnc2nc[nH]c12 [Azathioprine] | 1 |  |
| Sc1ncnc2nc[nH]c12 [6-mercaptopurine] | 1 |  |
| O=C(O)c1cn(C2CC2)c2cc(N3CCNCC3)c(F)cc2c1=O [Ciprofloxacin] | 0.2 |  |
| Cc1ncc([N+](=O)[O-])n1CCO [Metronidazole] | 8 | higher water solubility than cyclosporine |
